“Also recorded” adds a separate entry of the source. Structures can show the parent of a compound that is named as a salt.

Experimental findings from patent US11466020B2, “Compounds and compositions for inhibition and elimination of Zika infection and uses for same” (Cornell University, priority 2017, dated 2022) are described below.

One experiment concerns ZIKV (PRVABC59 strain). As to the kind of experiment: ZIKV PRVABC59 infection of hNPCs (immunocytochemistry). Format: cell-based, Zika virus. The settings on record: MOI=0.125, 72 h. The protocol:
(A) Scheme of high content chemical screen. (B) Chemical structure of hit compounds. (C) Inhibitory curve and IC50 of HH or AQ on hNPCs (n=6). (D-H) Immunocytochemistry analysis (D), the quantification of the infection rate (E), the quantification of proliferation rate (F), the quantification of cell apoptosis rate (G) and the normalized cell viability (H) of hNPCs at 72 h after ZIKV (MR 766 strain) infection with or without drug treatment. Scale bars, 100 μm. The ZIKV infection rate is defined as the percentage of ZIKV E^+ cells. The proliferation rate is defined as the percentages of Ki67^+ cells. The cell apoptosis rate was defined as the percentage of cleaved-Caspase 3/CAS3^+ cells. The normalized cell viability was calculated by dividing the total cell number of each condition by the total cell number under mock infection conditions. (n=6). […] (K) Quantification of ZIKV infectious particles produced by ZIKV-infected hNPCs with or without compound treatment by the Vero cell reinfection assay. […] (M and N) Immunocytochemistry analysis (M) and quantification of the infection rate (N) of hNPCs at 72 h after ZIKV (PRVABC59 strain) infection with or without drug treatment (n=6). Scale bars, 100 μm. p values were calculated by one-way repeated measures ANOVA with a Bonferroni test for multiple comparisons. *p<0.05, **p<0.01 and ***p<0.001. […]

In the next experiment the test system is ZIKV (MR766 strain). As to the kind of experiment: ZIKV infection of human forebrain organoids (MR766). The experiment is classed as cell-based, Zika virus. As to the method: (A) Experimental design for evaluating the therapeutic efficacy and safety of HH using forebrain organoids. D20 or D40 Forebrain organoids were exposed to ZIKV (5×10^5 PFU/ml) or mock-treated for 24 h. After removal of ZIKV-containing medium, fresh virus-free medium plus compounds were added. Organoids were analyzed at day 4 (D20+4) or day 18 (D20+18) after initial ZIKV infection. (B and C) HH eliminates ZIKV infection in short-term cultures. Immunocytochemistry analysis (B) and the quantification of infection rate (C) of mock, DMSO or 25 μM HH treated ZIKV-infected D20 organoids (n=3). Scale bars, 100 μm. D20+4 organoids mainly consist of SOX2^+ progenitors and are highly infiltrated by ZIKV. […] (D) qRT-PCR analysis of total ZIKV vRNA in the supernatant of DMSO or 25 μM HH treated ZIKV-infected D20 and D40 organoids (n=3). (E) HH rescues ZIKV-related proliferation and apoptosis defects in D20+4 organoids. The number of proliferating cells (Ki67^+) is decreased and the number of apoptotic cells (CAS^+) is increased in ZIKV-infected organoids compared to mock and 25 μM HH treated organoids (n=3). Scale bars, 100 μm. […] Scale bars, 50 μm. […] Quantifications show average organoid perimeter of D20+18 organoids (H). Values represent mean±SEM (n=3). Scale bars, 1 mm. (I) HH rescues ZIKV-induced structural defects in forebrain organoids. Mock treated organoids contain clearly defined progenitor (SOX2) and neuronal (TUJ1) zones. Neurons migrate out of progenitor zones and settle at the edge of the organoid, while progenitor zones occupy more interior regions of the organoid. In contrast, D20+18 ZIVK infected organoids lack clearly defined progenitor and neuronal zones, which appear to intermix. Both neuron and progenitor zones appear to settle at the edge of the organoid. HH rescues the well-delineated structure of forebrain organoids (n=3). Scale bars, 100 μm. p values were calculated by unpaired two-tailed Student's t-test. *p<0.05, **p<0.01 and ***p<0.001.
D20 forebrain organoids were inoculated with ZIKV (MR766 strain) for 24 h, followed by treatment with 15 μM AQ or 25 μM HH for 3 days (D20+4, short-term) or 17 days (D20+18, long-term). Organoids were analyzed for ZIKV infection, cell proliferation, and apoptosis (FIG. 3A).
Generation and culture of human forebrain organoids. To induce forebrain organoid differentiation, H9 hESC line (WA-09, WiCell) hPSCs were dissociated to single cells using EDTA, and 9000 cells were reaggregated using low-adhesion V-bottom 96 well plates (Wako) in Essential8 Medium (Fisher Scientific) with 10 μM Y-27632 (Tocris Biosciences). After 24 h (day 0), medium was changed to Essential6 (Fischer Scientific) supplemented with 10 μM SB431542 (Tocris Biosciences), 500 nM LDN193189 (Stem Cell Technologies), and 2 μM XAV939 (Tocris Biosciences) until day 4. […]

For `CCN(CC)Cc1cc(Nc2ccnc3cc(Cl)ccc23)ccc1O` [AQ, amodiaquine dihydrochloride dihydrate], the “ZIKV (PRVABC59) infection of hNPCs” value in the experiment with ZIKV (PRVABC59 strain) (15 μM AQ) was “effectively inhibited ZIKV infection”. For the same molecule, in the experiment with ZIKV (MR766 strain) (15 μM AQ, D20+4, dihydrochloride dihydrate), the “ZIKV infection in D20 organoids” value is “suppresses ZIKV infection; also recorded: reduces ZIKV infection”.

Regarding `CN1CCC2=C[C@H](O)[C@H]3OC(=O)c4cc5c(cc4[C@H]3[C@@H]21)OCO5` [HH, hippeastrine hydrobromide], the “ZIKV (PRVABC59) infection of hNPCs” value in the experiment on ZIKV (PRVABC59 strain) (25 μM HH) is “effectively inhibited ZIKV infection”. Further, the “total ZIKV vRNA level in supernatant from D20+4 organoids” value in the experiment on ZIKV (MR766 strain) (25 μM HH) was “suppresses total ZIKV vRNA level”. For the same molecule, in the experiment on ZIKV (MR766 strain) (25 μM HH, 3 day treatment, hydrobromide), the “ZIKV infection rate in D20+4 forebrain organoids” value is recorded as “undetectable levels; also recorded: below the detection limit”. Further, in the experiment with ZIKV (MR766 strain) (HH treated, 18 days after infection, hydrobromide), the “ZIKV infection in D20+18 organoids (long-term)” value is “devoid of any detectable ZIKV; also recorded: suppressed any detectable ZIKV infection”.
